Values quoted from earlier work in patent publication US20180030541A1, “METHOD FOR PREDICTING SENSITIVITY TO VASCULAR ENDOTHELIAL GROWTH FACTOR RECEPTOR INHIBITOR” (CBSBIOSCIENCE INC., priority 2014, published 2018).

System: hepatocellular carcinoma
Settings: drug approved for treating hepatocellular carcinoma; cancer patients

CNC(=O)c1cc(Oc2ccc(NC(=O)Nc3ccc(Cl)c(C(F)(F)F)c3)cc2)ccn1 [Nexavar, Sorafenib]
side effects: very high | treatment rate: 2-3%
